Laboratory results taken from ChEMBL document CHEMBL5370535, “Thiazolyl hydrazineylidenyl indolones as unique potential multitargeting broad-spectrum antimicrobial agents” (Eur J Med Chem, 2023).
≈ marks a conversion by molar mass, not a printed value.

Legend:
Type in all cases: functional
Pseudomonas aeruginosa [1] = assay: Antibacterial activity against Pseudomonas aeruginosa assessed as bacterial growth inhibition incubated for 24 hrs by CLSI based two serial dilution assay
Acinetobacter baumannii = assay: Antibacterial activity against Acinetobacter baumannii assessed as bacterial growth inhibition incubated for 24 hrs by CLSI based two serial dilution assay
Staphylococcus aureus [2] = assay: Antibacterial activity against Staphylococcus aureus assessed as bacterial growth inhibition incubated for 24 hrs by CLSI based two serial dilution assay
Candida albicans [3] = assay: Antifungal activity against Candida albicans ATCC 90023 assessed as inhibition of fungal growth incubated for 24 hrs by CLSI based two serial dilution assay
Staphylococcus aureus [4] = assay: Antibacterial activity against Staphylococcus aureus 25923 assessed as bacterial growth inhibition incubated for 24 hrs by CLSI based two serial dilution assay
Staphylococcus aureus [5] = assay: Antibacterial activity against Staphylococcus aureus 29213 assessed as bacterial growth inhibition incubated for 24 hrs by CLSI based two serial dilution assay
Aspergillus fumigatus = assay: Antifungal activity against Aspergillus fumigatus assessed as inhibition of fungal growth incubated for 24 hrs by CLSI based two serial dilution assay
Candida tropicalis = assay: Antifungal activity against Candida tropicalis assessed as inhibition of fungal growth incubated for 24 hrs by CLSI based two serial dilution assay
Pseudomonas aeruginosa [6] = assay: Antibacterial activity against Pseudomonas aeruginosa ATCC 27853 assessed as bacterial growth inhibition incubated for 24 hrs by CLSI based two serial dilution assay
Escherichia coli [7] = assay: Antibacterial activity against Escherichia coli 25922 assessed as bacterial growth inhibition incubated for 24 hrs by CLSI based two serial dilution assay
Staphylococcus aureus [8] = assay: Antibacterial activity against methicillin-resistant Staphylococcus aureus assessed as bacterial growth inhibition incubated for 24 hrs by CLSI based two serial dilution assay
Candida albicans [9] = assay: Antifungal activity against Candida albicans assessed as inhibition of fungal growth incubated for 24 hrs by CLSI based two serial dilution assay
Klebsiella pneumoniae = assay: Antibacterial activity against Klebsiella pneumoniae assessed as bacterial growth inhibition incubated for 24 hrs by CLSI based two serial dilution assay
Escherichia coli [10] = assay: Antibacterial activity against Escherichia coli assessed as bacterial growth inhibition incubated for 24 hrs by CLSI based two serial dilution assay
Candida parapsilosis = assay: Antifungal activity against Candida parapsilosis ATCC 22019 assessed as inhibition of fungal growth incubated for 24 hrs by CLSI based two serial dilution assay; settings: Lodderomyces parapsilosis
Enterococcus faecalis = assay: Antibacterial activity against Enterococcus faecalis assessed as bacterial growth inhibition incubated for 24 hrs by CLSI based two serial dilution assay

SMILES | MIC (Pseudomonas aeruginosa [1]) | MIC (Acinetobacter baumannii) | MIC (Staphylococcus aureus [2]) | MIC (Candida albicans [3]) | MIC (Staphylococcus aureus [4]) | MIC (Staphylococcus aureus [5]) | MIC (Aspergillus fumigatus) | MIC (Candida tropicalis) | MIC (Pseudomonas aeruginosa [6]) | MIC (Escherichia coli [7]) | MIC (Staphylococcus aureus [8]) | MIC (Candida albicans [9]) | MIC (Klebsiella pneumoniae) | MIC (Escherichia coli [10]) | MIC (Candida parapsilosis) | MIC (Enterococcus faecalis)
CCCCN1C(=O)/C(=N\Nc2nccs2)c2cc(C)ccc21 | 16 µM (≈ 5.03 µg/mL) | 2 µM (≈ 0.629 µg/mL) | 4 µM (≈ 1.26 µg/mL) | 4 µM (≈ 1.26 µg/mL) | 8 µM (≈ 2.52 µg/mL) | 2 µM (≈ 0.629 µg/mL) | 2 µM (≈ 0.629 µg/mL) | 2 µM (≈ 0.629 µg/mL) | 32 µM (≈ 10.1 µg/mL) | 4 µM (≈ 1.26 µg/mL) | 4 µM (≈ 1.26 µg/mL) | 4 µM (≈ 1.26 µg/mL) | 2 µM (≈ 0.629 µg/mL) | 4 µM (≈ 1.26 µg/mL) | 1 µM (≈ 0.314 µg/mL) | 32 µM (≈ 10.1 µg/mL)
CCCCN1C(=O)/C(=N\Nc2nc(C)c(C(C)=O)s2)c2ccccc21 | 16 µM (≈ 5.7 µg/mL) | 512 µM (≈ 183 µg/mL) | 16 µM (≈ 5.7 µg/mL) | 512 µM (≈ 183 µg/mL) | 512 µM (≈ 183 µg/mL) | 16 µM (≈ 5.7 µg/mL) | 512 µM (≈ 183 µg/mL) | 512 µM (≈ 183 µg/mL) | 512 µM (≈ 183 µg/mL) | 512 µM (≈ 183 µg/mL) | 512 µM (≈ 183 µg/mL) | 512 µM (≈ 183 µg/mL) | 512 µM (≈ 183 µg/mL) | 512 µM (≈ 183 µg/mL) | 512 µM (≈ 183 µg/mL) | 512 µM (≈ 183 µg/mL)
O=C1/C(=N\Nc2nccs2)c2ccccc2N1Cc1ccc(Cl)cc1Cl | 64 µM (≈ 25.8 µg/mL) | 64 µM (≈ 25.8 µg/mL) | 4 µM (≈ 1.61 µg/mL) | 16 µM (≈ 6.45 µg/mL) | 4 µM (≈ 1.61 µg/mL) | 2 µM (≈ 0.807 µg/mL) | 16 µM (≈ 6.45 µg/mL) | 64 µM (≈ 25.8 µg/mL) | 64 µM (≈ 25.8 µg/mL) | 128 µM (≈ 51.6 µg/mL) | 128 µM (≈ 51.6 µg/mL) | 32 µM (≈ 12.9 µg/mL) | 128 µM (≈ 51.6 µg/mL) | 64 µM (≈ 25.8 µg/mL) | 32 µM (≈ 12.9 µg/mL) | 64 µM (≈ 25.8 µg/mL)
CCCCN1C(=O)/C(=N\Nc2nc(C)cs2)c2ccccc21 | 1 µM (≈ 0.314 µg/mL) | 4 µM (≈ 1.26 µg/mL) | 32 µM (≈ 10.1 µg/mL) | 1 µM (≈ 0.314 µg/mL) | 8 µM (≈ 2.52 µg/mL) | 32 µM (≈ 10.1 µg/mL) | 64 µM (≈ 20.1 µg/mL) | 4 µM (≈ 1.26 µg/mL) | 512 µM (≈ 161 µg/mL) | 4 µM (≈ 1.26 µg/mL) | 2 µM (≈ 0.629 µg/mL) | 256 µM (≈ 80.5 µg/mL) | 4 µM (≈ 1.26 µg/mL) | 16 µM (≈ 5.03 µg/mL) | 256 µM (≈ 80.5 µg/mL) | 16 µM (≈ 5.03 µg/mL)
CCCCCCCCN1C(=O)/C(=N\Nc2nccs2)c2ccccc21 | 64 µM (≈ 22.8 µg/mL) | 512 µM (≈ 183 µg/mL) | 512 µM (≈ 183 µg/mL) | 256 µM (≈ 91.3 µg/mL) | 512 µM (≈ 183 µg/mL) | 512 µM (≈ 183 µg/mL) | 512 µM (≈ 183 µg/mL) | 512 µM (≈ 183 µg/mL) | 128 µM (≈ 45.6 µg/mL) | 256 µM (≈ 91.3 µg/mL) | 512 µM (≈ 183 µg/mL) | 512 µM (≈ 183 µg/mL) | 512 µM (≈ 183 µg/mL) | 512 µM (≈ 183 µg/mL) | 128 µM (≈ 45.6 µg/mL) | 32 µM (≈ 11.4 µg/mL)
CCCCN1C(=O)/C(=N\Nc2nccs2)c2cc(OC)ccc21 | 4 µM (≈ 1.32 µg/mL) | 16 µM (≈ 5.29 µg/mL) | 32 µM (≈ 10.6 µg/mL) | 32 µM (≈ 10.6 µg/mL) | 16 µM (≈ 5.29 µg/mL) | 16 µM (≈ 5.29 µg/mL) | 32 µM (≈ 10.6 µg/mL) | 128 µM (≈ 42.3 µg/mL) | 32 µM (≈ 10.6 µg/mL) | 4 µM (≈ 1.32 µg/mL) | 8 µM (≈ 2.64 µg/mL) | 64 µM (≈ 21.1 µg/mL) | 128 µM (≈ 42.3 µg/mL) | 16 µM (≈ 5.29 µg/mL) | 16 µM (≈ 5.29 µg/mL) | 4 µM (≈ 1.32 µg/mL)
CCCCCCCCCCN1C(=O)/C(=N\Nc2nccs2)c2ccccc21 | 64 µM (≈ 24.6 µg/mL) | 512 µM (≈ 197 µg/mL) | 512 µM (≈ 197 µg/mL) | 256 µM (≈ 98.4 µg/mL) | 512 µM (≈ 197 µg/mL) | 512 µM (≈ 197 µg/mL) | 512 µM (≈ 197 µg/mL) | 64 µM (≈ 24.6 µg/mL) | 512 µM (≈ 197 µg/mL) | 64 µM (≈ 24.6 µg/mL) | 512 µM (≈ 197 µg/mL) | 512 µM (≈ 197 µg/mL) | 256 µM (≈ 98.4 µg/mL) | 512 µM (≈ 197 µg/mL) | 256 µM (≈ 98.4 µg/mL) | 4 µM (≈ 1.54 µg/mL)
CCCCCN1C(=O)/C(=N\Nc2nccs2)c2ccccc21 | 2 µM (≈ 0.629 µg/mL) | 4 µM (≈ 1.26 µg/mL) | 4 µM (≈ 1.26 µg/mL) | 4 µM (≈ 1.26 µg/mL) | 16 µM (≈ 5.03 µg/mL) | 4 µM (≈ 1.26 µg/mL) | 4 µM (≈ 1.26 µg/mL) | 16 µM (≈ 5.03 µg/mL) | 16 µM (≈ 5.03 µg/mL) | 4 µM (≈ 1.26 µg/mL) | 4 µM (≈ 1.26 µg/mL) | 4 µM (≈ 1.26 µg/mL) | 4 µM (≈ 1.26 µg/mL) | 16 µM (≈ 5.03 µg/mL) | 4 µM (≈ 1.26 µg/mL) | 4 µM (≈ 1.26 µg/mL)
CCCCN1C(=O)/C(=N\Nc2nccs2)c2c(Cl)cc(Cl)cc21 | 2 µM (≈ 0.739 µg/mL) | 512 µM (≈ 189 µg/mL) | 2 µM (≈ 0.739 µg/mL) | 2 µM (≈ 0.739 µg/mL) | 1 µM (≈ 0.369 µg/mL) | 2 µM (≈ 0.739 µg/mL) | 128 µM (≈ 47.3 µg/mL) | 1 µM (≈ 0.369 µg/mL) | 512 µM (≈ 189 µg/mL) | 1 µM (≈ 0.369 µg/mL) | 1 µM (≈ 0.369 µg/mL) | 0.5 µM (≈ 0.185 µg/mL) | 1 µM (≈ 0.369 µg/mL) | 32 µM (≈ 11.8 µg/mL) | 256 µM (≈ 94.5 µg/mL) | 4 µM (≈ 1.48 µg/mL)
O=C1/C(=N\Nc2nccs2)c2ccccc2N1Cc1ccccc1Cl | 32 µM (≈ 11.8 µg/mL) | 512 µM (≈ 189 µg/mL) | 8 µM (≈ 2.95 µg/mL) | 4 µM (≈ 1.48 µg/mL) | 64 µM (≈ 23.6 µg/mL) | 64 µM (≈ 23.6 µg/mL) | 16 µM (≈ 5.9 µg/mL) | 16 µM (≈ 5.9 µg/mL) | 512 µM (≈ 189 µg/mL) | 256 µM (≈ 94.4 µg/mL) | 8 µM (≈ 2.95 µg/mL) | 16 µM (≈ 5.9 µg/mL) | 512 µM (≈ 189 µg/mL) | 256 µM (≈ 94.4 µg/mL) | 4 µM (≈ 1.48 µg/mL) | 32 µM (≈ 11.8 µg/mL)
O=C(N[C@H](CO)[C@H](O)c1ccc([N+](=O)[O-])cc1)C(Cl)Cl [CHLORAMPHENICOL] | 32 µM (≈ 10.3 µg/mL) | 16 µM (≈ 5.17 µg/mL) | 8 µM (≈ 2.59 µg/mL) |  | 8 µM (≈ 2.59 µg/mL) | 4 µM (≈ 1.29 µg/mL) |  |  | 8 µM (≈ 2.59 µg/mL) | 16 µM (≈ 5.17 µg/mL) | 16 µM (≈ 5.17 µg/mL) |  | 8 µM (≈ 2.59 µg/mL) | 32 µM (≈ 10.3 µg/mL) |  | 8 µM (≈ 2.59 µg/mL)
CCCCN1C(=O)/C(=N\Nc2nc(-c3ccc(F)cc3F)cs2)c2ccccc21 | 2 µM (≈ 0.825 µg/mL) | 512 µM (≈ 211 µg/mL) | 4 µM (≈ 1.65 µg/mL) | 512 µM (≈ 211 µg/mL) | 512 µM (≈ 211 µg/mL) | 4 µM (≈ 1.65 µg/mL) | 512 µM (≈ 211 µg/mL) | 512 µM (≈ 211 µg/mL) | 512 µM (≈ 211 µg/mL) | 512 µM (≈ 211 µg/mL) | 512 µM (≈ 211 µg/mL) | 512 µM (≈ 211 µg/mL) | 512 µM (≈ 211 µg/mL) | 512 µM (≈ 211 µg/mL) | 512 µM (≈ 211 µg/mL) | 512 µM (≈ 211 µg/mL)
OC(Cn1cncn1)(Cn1cncn1)c1ccc(F)cc1F [FLUCONAZOLE] |  |  |  | 2 µM (≈ 0.613 µg/mL) |  |  | 256 µM (≈ 78.4 µg/mL) | 8 µM (≈ 2.45 µg/mL) |  |  |  | 4 µM (≈ 1.23 µg/mL) |  |  | 4 µM (≈ 1.23 µg/mL) | 
C=CC1=C(C(=O)O)N2C(=O)[C@@H](NC(=O)/C(=N\O)c3csc(N)n3)[C@H]2SC1 [CEFDINIR] | 0.5 µM (≈ 0.198 µg/mL) | 2 µM (≈ 0.791 µg/mL) | 1 µM (≈ 0.395 µg/mL) |  | 0.5 µM (≈ 0.198 µg/mL) | 0.5 µM (≈ 0.198 µg/mL) |  |  | 1 µM (≈ 0.395 µg/mL) | 2 µM (≈ 0.791 µg/mL) | 1 µM (≈ 0.395 µg/mL) |  | 0.5 µM (≈ 0.198 µg/mL) | 1 µM (≈ 0.395 µg/mL) |  | 2 µM (≈ 0.791 µg/mL)
